The results in this text go back to patent US20240398828A1, “HETERO-ATOM CONTAINING COMPOUNDS AND USES THEREOF” (Kumquat Biosciences Inc., priority 2021, published 2024).

One experiment addresses T1, PTPN1 (i.e., PTP1B) (Homo sapiens, UniProt P18031).
T1 sequence (P18031 1-435): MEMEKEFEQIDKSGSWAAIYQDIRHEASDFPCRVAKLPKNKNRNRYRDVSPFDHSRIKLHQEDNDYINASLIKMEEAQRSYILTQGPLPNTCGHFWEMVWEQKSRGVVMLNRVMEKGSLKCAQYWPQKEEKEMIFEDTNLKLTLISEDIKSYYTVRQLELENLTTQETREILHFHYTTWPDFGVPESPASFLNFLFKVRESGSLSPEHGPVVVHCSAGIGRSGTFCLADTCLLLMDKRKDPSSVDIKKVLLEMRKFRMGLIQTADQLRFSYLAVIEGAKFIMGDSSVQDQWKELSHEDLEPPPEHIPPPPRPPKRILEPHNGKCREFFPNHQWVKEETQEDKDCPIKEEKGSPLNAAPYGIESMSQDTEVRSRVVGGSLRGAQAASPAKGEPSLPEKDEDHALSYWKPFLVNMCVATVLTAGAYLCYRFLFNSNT
Description: Phosphatase activity assay (DiFMUP substrate), PTP1B. To be noted: compounds binned ≤1 uM or >1 uM. Format: biochemical. Put shortly: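 Continuous fluorogenic readout of DiFMUP dephosphorylation at room temperature, substrate set at Km for each phosphatase (about 45 μM in the PTPN2 assay). The buffer contains 1 mM DTT and 0.001% Tween-20, pH 7.5.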

A further experiment concerns the target T2, PTPN2 (i.e., TC-PTP) (Homo sapiens, UniProt P17706).
T2 sequence (P17706 1-415): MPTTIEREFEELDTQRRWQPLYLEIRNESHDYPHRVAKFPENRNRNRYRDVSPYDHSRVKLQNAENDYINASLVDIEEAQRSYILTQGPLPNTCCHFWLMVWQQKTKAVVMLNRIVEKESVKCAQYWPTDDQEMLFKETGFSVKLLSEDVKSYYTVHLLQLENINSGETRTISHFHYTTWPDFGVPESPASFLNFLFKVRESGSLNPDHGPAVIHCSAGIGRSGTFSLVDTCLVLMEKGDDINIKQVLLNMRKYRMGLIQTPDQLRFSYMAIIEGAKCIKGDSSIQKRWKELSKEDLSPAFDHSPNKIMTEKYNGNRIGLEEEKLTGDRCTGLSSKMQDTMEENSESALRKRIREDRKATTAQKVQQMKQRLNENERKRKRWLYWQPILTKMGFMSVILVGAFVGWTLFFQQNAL
Briefly: Phosphatase activity assay (DiFMUP substrate), PTPN2. Format: biochemical. To be noted: compounds binned ≤1 uM or >1 uM. Put shortly: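 Enzyme (e.g. PTPN2 0.025 ng/ul) mixed about 2 min with compound at 10 serial concentrations in 50 mM HEPES pH 7.5, 150 mM NaCl, 0.5 mM EDTA, 1 mM DTT, 0.001% Tween-20 at room temperature. DiFMUP added at each enzyme's Km (about 45 μM for PTPN2). DiFMU fluorescence (ex 360/em 450 nm) followed 15-30 min; IC50 from 4-parameter fit of rates.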

For the molecule `O=C1CN(c2c(O)ccc(-c3cnc(C4CC4)[nH]3)c2F)S(=O)(=O)N1` [Compound 406, 5-(3-(2-cyclopropyl-1H-imidazol-5-yl)-2-fluoro-6-hydroxyphenyl)-1,2,5-thiadiazolidin-3-one 1,1-dioxide], the IC50 is not above 1 µM on PTPN1 (i.e., PTP1B) and not above 1 µM on PTPN2 (i.e., TC-PTP).

Regarding `CC1CC(c2ccc(O)c(N3CC(=O)NS3(=O)=O)c2F)CN1` (stereo not drawn) [Compound 407, 5-(2-fluoro-6-hydroxy-3-(5-methylpyrrolidin-3-yl)phenyl)-1,2,5-thiadiazolidin-3-one 1,1-dioxide], the IC50 on PTPN1 (i.e., PTP1B) was not above 1 µM; on PTPN2 (i.e., TC-PTP) it was not above 1 µM.

For `O=C1CN(c2c(O)ccc(-c3cnn(C4CCC(O)CC4)c3)c2F)S(=O)(=O)N1` (stereo not drawn) [Compound 408, 5-(2-fluoro-6-hydroxy-3-(1-(4-hydroxycyclohexyl)-1H-pyrazol-4-yl)phenyl)-1,2,5-thiadiazolidin-3-one 1,1-dioxide], the IC50 was not above 1 µM at PTPN1 (i.e., PTP1B) and not above 1 µM on PTPN2 (i.e., TC-PTP).

Turning to `O=C1CN(c2c(O)ccc(-c3cc(C4CC4)n(CC4CC4)n3)c2F)S(=O)(=O)N1` [Compound 409, 5-(3-(5-cyclopropyl-1-(cyclopropylmethyl)-1H-pyrazol-3-yl)-2-fluoro-6-hydroxyphenyl)-1,2,5-thiadiazolidin-3-one 1,1-dioxide], the IC50 is not above 1 µM on PTPN1 (i.e., PTP1B) and not above 1 µM on PTPN2 (i.e., TC-PTP).

Turning to `O=C1CN(c2c(O)ccc(-c3cnn(C(F)(F)C(F)F)c3)c2F)S(=O)(=O)N1` [Compound 410, 5-(2-fluoro-6-hydroxy-3-(1-(1,1,2,2-tetrafluoroethyl)-1H-pyrazol-4-yl)phenyl)-1,2,5-thiadiazolidin-3-one 1,1-dioxide], the IC50 at PTPN1 (i.e., PTP1B) was not above 1 µM; at PTPN2 (i.e., TC-PTP), not above 1 µM.

Turning to `O=C1CN(c2c(O)ccc(-c3cnn(C4CC5CCC(C4)N5C(=O)C4CC4)c3)c2F)S(=O)(=O)N1` (stereo not drawn) [Compound 411, 5-(3-(1-(8-(cyclopropanecarbonyl)-8-azabicyclo[3.2.1]octan-3-yl)-1H-pyrazol-4-yl)-2-fluoro-6-hydroxyphenyl)-1,2,5-thiadiazolidin-3-one 1,1-dioxide], the IC50 on PTPN1 (i.e., PTP1B) is not above 1 µM; at PTPN2 (i.e., TC-PTP) it was not above 1 µM.

On to `O=C1CN(c2c(O)ccc(-c3cn(C4CCS(=O)(=O)CC4)cn3)c2F)S(=O)(=O)N1` [Compound 412, 5-(3-(1-(1,1-dioxidotetrahydro-2H-thiopyran-4-yl)-1H-imidazol-4-yl)-2-fluoro-6-hydroxyphenyl)-1,2,5-thiadiazolidin-3-one 1,1-dioxide], for which the IC50 on PTPN1 (i.e., PTP1B) was not above 1 µM; at PTPN2 (i.e., TC-PTP), not above 1 µM.

Regarding `O=C1CN(c2c(O)ccc(-c3cnn(C4CC5(CC5)C4)c3)c2F)S(=O)(=O)N1` [Compound 414, 5-(2-fluoro-6-hydroxy-3-(1-(spiro[2.3]hexan-5-yl)-1H-pyrazol-4-yl)phenyl)-1,2,5-thiadiazolidin-3-one 1,1-dioxide], the IC50 was not above 1 µM on PTPN1 (i.e., PTP1B) and not above 1 µM at PTPN2 (i.e., TC-PTP).

For `O=C1CN(c2c(O)ccc(-c3cc(CCC(F)(F)F)n[nH]3)c2F)S(=O)(=O)N1` [Compound 415, 5-(2-fluoro-6-hydroxy-3-(3-(3,3,3-trifluoropropyl)-1H-pyrazol-5-yl)phenyl)-1,2,5-thiadiazolidin-3-one 1,1-dioxide], the half-maximal inhibitory concentration (IC50) at PTPN1 (i.e., PTP1B) is not above 1 µM; on PTPN2 (i.e., TC-PTP), not above 1 µM.

Regarding `O=C1CN(c2c(O)ccc(-c3cc(N4CCC4)n[nH]3)c2F)S(=O)(=O)N1` [Compound 417, 5-(3-(3-(azetidin-1-yl)-1H-pyrazol-5-yl)-2-fluoro-6-hydroxyphenyl)-1,2,5-thiadiazolidin-3-one 1,1-dioxide], the IC50 was not above 1 µM at PTPN1 (i.e., PTP1B) and not above 1 µM on PTPN2 (i.e., TC-PTP).

Turning to `Cc1ccccc1-n1cnc(-c2ccc(O)c(N3CC(=O)NS3(=O)=O)c2F)c1` [Compound 418, 5-(2-fluoro-6-hydroxy-3-(1-(o-tolyl)-1H-imidazol-4-yl)phenyl)-1,2,5-thiadiazolidin-3-one 1,1-dioxide], the IC50 on PTPN1 (i.e., PTP1B) was not above 1 µM; on PTPN2 (i.e., TC-PTP), not above 1 µM.

Regarding `O=C1CC(c2c(O)ccc(-c3cn(CC4CCCCC4)cn3)c2F)S(=O)(=O)N1` (stereo not drawn) [Compound 419, 5-(3-(1-(cyclohexylmethyl)-1H-imidazol-4-yl)-2-fluoro-6-hydroxyphenyl)isothiazolidin-3-one 1,1-dioxide], the IC50 at PTPN1 (i.e., PTP1B) is more than 1 µM; at PTPN2 (i.e., TC-PTP), more than 1 µM.

Take `O=C1CN(c2c(O)ccc(-c3cc(C4CCOCC4)n[nH]3)c2F)S(=O)(=O)N1` [Compound 420, 5-(2-fluoro-6-hydroxy-3-(3-(tetrahydro-2H-pyran-4-yl)-1H-pyrazol-5-yl)phenyl)-1,2,5-thiadiazolidin-3-one 1,1-dioxide]: the IC50 at PTPN1 (i.e., PTP1B) was not above 1 µM; on PTPN2 (i.e., TC-PTP), not above 1 µM.

Turning to `O=C1CN(c2c(O)ccc(-c3cc(C4CC4)n[nH]3)c2F)S(=O)(=O)N1` [Compound 421, 5-(3-(3-cyclopropyl-1H-pyrazol-5-yl)-2-fluoro-6-hydroxyphenyl)-1,2,5-thiadiazolidin-3-one 1,1-dioxide], the IC50 at PTPN1 (i.e., PTP1B) is not above 1 µM; on PTPN2 (i.e., TC-PTP), not above 1 µM.

For `O=C1CN(c2c(O)ccc(-c3cnn(CC4CC5CCC(C4)O5)c3)c2F)S(=O)(=O)N1` (stereo not drawn) [Compound 422, 5-(3-(1-((8-oxabicyclo[3.2.1]octan-3-yl)methyl)-1H-pyrazol-4-yl)-2-fluoro-6-hydroxyphenyl)-1,2,5-thiadiazolidin-3-one 1,1-dioxide], the IC50 on PTPN1 (i.e., PTP1B) was not above 1 µM; at PTPN2 (i.e., TC-PTP) it was not above 1 µM.

`O=C1CN(c2c(O)ccc(-c3cn(C4CCC(Br)CC4)cn3)c2F)S(=O)(=O)N1` (stereo not drawn) [Compound 423, 5-(3-(1-(4-bromocyclohexyl)-1H-imidazol-4-yl)-2-fluoro-6-hydroxyphenyl)-1,2,5-thiadiazolidin-3-one 1,1-dioxide]: the IC50 on PTPN1 (i.e., PTP1B) was not above 1 µM; at PTPN2 (i.e., TC-PTP), not above 1 µM.

For `O=C1CN(c2c(O)ccc(-c3cnn(C4CC4(F)F)c3)c2F)S(=O)(=O)N1` (stereo not drawn) [Compound 424, 5-(3-(1-(2,2-difluorocyclopropyl)-1H-pyrazol-4-yl)-2-fluoro-6-hydroxyphenyl)-1,2,5-thiadiazolidin-3-one 1,1-dioxide], the IC50 was not above 1 µM at PTPN1 (i.e., PTP1B) and not above 1 µM at PTPN2 (i.e., TC-PTP).

As to `Cc1nsc(-c2ccc(O)c(N3CC(=O)NS3(=O)=O)c2F)n1` [Compound 425, 5-(2-fluoro-6-hydroxy-3-(3-methyl-1,2,4-thiadiazol-5-yl)phenyl)-1,2,5-thiadiazolidin-3-one 1,1-dioxide], the IC50 is not above 1 µM at PTPN1 (i.e., PTP1B) and not above 1 µM on PTPN2 (i.e., TC-PTP).

As to `CO[C@H]1CC[C@H](n2cc(-c3ccc(O)c(N4CC(=O)NS4(=O)=O)c3F)cn2)CC1` [Compound 426, 5-(2-fluoro-6-hydroxy-3-(1-((1r,4r)-4-methoxycyclohexyl)-1H-pyrazol-4-yl)phenyl)-1,2,5-thiadiazolidin-3-one 1,1-dioxide], the IC50 is not above 1 µM on PTPN1 (i.e., PTP1B) and not above 1 µM on PTPN2 (i.e., TC-PTP).

As to `N#Cc1ccc(-n2cnc(-c3ccc(O)c(N4CC(=O)NS4(=O)=O)c3F)c2)cc1` [Compound 427, 4-(4-(3-(1,1-dioxido-4-oxo-1,2,5-thiadiazolidin-2-yl)-2-fluoro-4-hydroxyphenyl)-1H-imidazol-1-yl)benzonitrile], the IC50 is not above 1 µM on PTPN1 (i.e., PTP1B) and not above 1 µM at PTPN2 (i.e., TC-PTP).

For `COc1cc(-c2ccc(O)c(N3CC(=O)NS3(=O)=O)c2F)[nH]n1` [Compound 428, 5-(2-fluoro-6-hydroxy-3-(3-methoxy-1H-pyrazol-5-yl)phenyl)-1,2,5-thiadiazolidin-3-one 1,1-dioxide], the IC50 was not above 1 µM on PTPN1 (i.e., PTP1B) and not above 1 µM on PTPN2 (i.e., TC-PTP).

In the case of `O=C1CN(c2c(O)ccc(-c3cc(C4CC4)n(C4CC4)n3)c2F)S(=O)(=O)N1` [Compound 429, 5-(3-(1,5-dicyclopropyl-1H-pyrazol-3-yl)-2-fluoro-6-hydroxyphenyl)-1,2,5-thiadiazolidin-3-one 1,1-dioxide], the IC50 was not above 1 µM on PTPN1 (i.e., PTP1B) and not above 1 µM on PTPN2 (i.e., TC-PTP).

As for `CN(C)C1(Cn2cc(-c3ccc(O)c(N4CC(=O)NS4(=O)=O)c3F)cn2)CCC1` [Compound 430, 5-(3-(1-((1-(dimethylamino)cyclobutyl)methyl)-1H-pyrazol-4-yl)-2-fluoro-6-hydroxyphenyl)-1,2,5-thiadiazolidin-3-one 1,1-dioxide], the IC50 on PTPN1 (i.e., PTP1B) was not above 1 µM; at PTPN2 (i.e., TC-PTP) it was not above 1 µM.

Turning to `O=C1CN(c2c(O)ccc(-c3cc(N4CCC5(COC5)C4)n[nH]3)c2F)S(=O)(=O)N1` [Compound 431, 5-(3-(3-(2-oxa-6-azaspiro[3.4]octan-6-yl)-1H-pyrazol-5-yl)-2-fluoro-6-hydroxyphenyl)-1,2,5-thiadiazolidin-3-one 1,1-dioxide], the IC50 at PTPN1 (i.e., PTP1B) was not above 1 µM; at PTPN2 (i.e., TC-PTP) it was not above 1 µM.

For orientation: IC50 means the point on the concentration scale where inhibition reaches its midpoint.
